# Paper PMC7089965 (Frontiers in Microbiology, 2020)
# Like-named read-outs stand apart in the source and are kept apart here. Where a SMILES comes first, the peptide text is derived from it. [ ]: non-standard residue; d: D form. Nspe = C[C@H](NCC(=O)O)c1ccccc1; NHexGly = CCCCCCNCC(=O)O; Nlys = NCCCCNCC(=O)O
# Experiments:
# M. bovis BCG = conditions: broth microdilution, 10^6 CFU/mL, 7 days, 37°C, OD595 and visual
# [1] = tested on: MDR clinical isolate M. tuberculosis CSU87; conditions: broth microdilution, 10^6 CFU/mL, 7 days, 37°C, OD595 and visual
# M. tuberculosis CSU87 = conditions: 7 days, CFU enumeration, three independent experiments
Structure (SMILES),MIC BCG (M. bovis BCG) [µg/mL],MIC CSU87 [1] [µg/mL],killing of CSU87 (M. tuberculosis CSU87; 2 × MIC (8 mg/L)) [%],killing of CSU87 (M. tuberculosis CSU87; 4 × MIC (16 mg/L)) [%]
CCCCCCNCC(=O)N(CC(=O)N(CCCCN)CC(N)=O)[C@@H](C)c1ccccc1 [BM 1],16 to 32,,,
CCCCCCNCC(=O)N(CC(=O)N(CCCCN)CC(=O)N(CCCCCC)CC(=O)N(CC(=O)N(CCCCN)CC(N)=O)[C@@H](C)c1ccccc1)[C@@H](C)c1ccccc1 [BM 2] (H-[NHexGly][Nspe][Nlys][NHexGly][Nspe][Nlys]-NH2),2 to 4,4,> 99,99.9
CCCCCCNCC(=O)N(CC(=O)N(CCCCN)CC(=O)N(CCCCCC)CC(=O)N(CC(=O)N(CCCCN)CC(=O)N(CCCCCC)CC(=O)N(CC(=O)N(CCCCN)CC(N)=O)[C@@H](C)c1ccccc1)[C@@H](C)c1ccccc1)[C@@H](C)c1ccccc1 [BM 3] (H-[NHexGly][Nspe][Nlys][NHexGly][Nspe][Nlys][NHexGly][Nspe][Nlys]-NH2),4 to 8,16,,
